`COc1cc(C(F)(F)F)nc2ccc(C)c([N+](=O)[O-])c12` gave a melting point of 181 to 183 °C.
`O=c1n(-c2ccccc2)c(=O)n(-c2ccccc2)c(=O)n1-c1ccccc1` gave a melting point of 285 °C.
Work on `O=Cc1cc(Br)ccc1O` yielded a melting point of 105 °C.
`CC(C)(C)C(=O)CS(=O)(=O)c1ccc(Cl)cc1` showed a melting point of 97 °C.
With `C1CCN(CCN2CCCCC2)CC1` the melting point was -0.5 °C.
In the case of `Cc1ccc(N)cc1[N+](=O)[O-]`, the melting point is reported as 76.5 °C.
`Cc1ccc(C(c2ccc(C)o2)c2ccccc2Br)o1` gave a melting point of 57 °C.
With `CC(=O)C1=C(C)C(C)(O)NC1=O` (centres undefined) the melting point was 172 to 174 °C.
Work on `Cc1cc(C(F)(F)F)c(C#N)c(=O)[nH]1` yielded a melting point of 233 to 235 °C.
`CC(C)(OO)c1ccccc1` gave a melting point of -9 °C.
In the case of `CCC(N)Cc1c[nH]c2ccccc12` (centres undefined), the melting point is reported as 97 °C.
For `O=C(Nc1ccc(Br)cc1)c1cc(Br)cc(Br)c1O`, the melting point was 227 °C.
In the case of `CC1CCC(C(C)C)C(=O)C1` (single isomer, unassigned; (-)), the melting point is reported as -6 °C.
`CCCCCC(c1ccccc1)c1ccccc1` showed a melting point of -12 °C.
In the case of `O=c1c(C2CC(c3ccc(-c4ccc(Br)cc4)cc3)Cc3ccccc32)c(O)sc2ccccc12` (centres undefined), the melting point is reported as 235 °C.
In the case of `O=C(NCCCc1ccccc1)c1cc([N+](=O)[O-])cc([N+](=O)[O-])c1`, the melting point is reported as 123 °C.
Compound `Cc1cc(C)cc(OCC2CNC(=O)O2)c1` (centres undefined) has a melting point of 122 °C.
`COc1ccc(C[C@H](N)C(=O)O)cc1` gave a melting point of 259 to 261 °C.
With `COc1cccc(C2C(C(=O)OC(C)C)=C(C)NC(C)=C2C(=O)OC(C)C)c1O` the melting point was 196 °C.
With `Nc1cc(C(F)(F)F)ccn1` the melting point was 73 °C.
`Nc1ccc(S(=O)(=O)Nc2ccc(Cl)nn2)cc1` gave a melting point of 187 °C.
`COc1ccc(-c2noc(CCl)n2)cc1` showed a melting point of 52 to 53 °C.
Work on `CCOC(=O)CCC(=O)c1ccc(OC)cc1` yielded a melting point of 51 °C.
`COc1nc2c(c(=O)n(C)c(=O)n2C)n1C` gave a melting point of 176 °C.
In the case of `COC(=O)c1cc(C)nc(Cl)n1`, the melting point is reported as 110 to 111 °C.
With `O=C(Cc1ccccc1)C(Cc1ccccc1)=NNc1ccccc1` the melting point was 137 °C.
`N#Cc1cc([N+](=O)[O-])ccc1F` showed a melting point of 73 to 74 °C.
With `CCOC(=O)CC[C@H](NC(=O)c1ccc([N+](=O)[O-])cc1)C(=O)OCC` the melting point was 92 to 95 °C.
Compound `CCOC(=O)c1cn[nH]c1NC(=O)Nc1ccc(F)cc1` has a melting point of 255 to 257 °C.
`CC1CCC(C(C)C)C(OC(=O)C(Cc2ccccc2)c2ccccc2)C1` (centres undefined) gave a melting point of 101 °C.
Compound `Cc1cccc(O)c1C(=O)O` has a melting point of 173 °C.
With `CCS(=O)(=O)c1ccc(F)cc1` the melting point was 41 °C.
In the case of `CC1(C)CCC2(C)CCC3(C)C(=CCC4C5(C)CCC(O)C(C)(C)C5CCC43C)C2C1` (centres undefined), the melting point is reported as 197 °C.
For `Nc1ccc(Cl)c(Cl)c1Cl`, the melting point was 73 °C.
`Cc1cccc(Nc2ccccc2C(=O)O)c1C` gave a melting point of 231 °C.
With `Cc1[nH]c2ccccc2c1C=O` the melting point was 204 to 205 °C.
`Cc1ccc(N)cc1I` showed a melting point of 36 °C.
For `C=CCOc1ccc(NC(C)=O)cc1`, the melting point was 90 to 92 °C.
Work on `BrCC1CO1` (centres undefined) yielded a melting point of -40 °C.
Work on `O=C(O)c1ccc(C2CCCCC2)cc1` yielded a melting point of 196 °C.
Work on `CC(C)(C)c1ccccc1N` yielded a melting point of -60 °C.
`O=Cc1ccc(-c2ccc([N+](=O)[O-])cc2)o1` gave a melting point of 204 to 208 °C.
Work on `CC(C)Cn1cnc2c(N)nc3ccccc3c21` yielded a melting point of 293 °C.
For `CC(C)(C)OC(=O)CC(=O)OC(C)(C)C`, the melting point was -6 °C.
With `O=[N+]([O-])c1ccccc1/C=C/c1nc2ccccc2s1` the melting point was 131 °C.
In the case of `C=Cc1cccc(C(N)=O)c1`, the melting point is reported as 133 °C.
With `Oc1cc(C(F)(F)F)ccn1` the melting point was 159 °C.
`OCc1c(F)ccc(F)c1Cl` showed a melting point of 47 °C.
Compound `Brc1ccc(N2CCCC2)cc1` has a melting point of 105 to 106 °C.
`CC=CC=CC=CC=O` gave a melting point of 56.8 °C.
Work on `NS(=O)(=O)c1cc2c(cc1Cl)NC(Cc1ccc(F)cc1)NS2(=O)=O` (centres undefined) yielded a melting point of 239 °C.
`O=C(O)Cc1ccc([N+](=O)[O-])cc1[N+](=O)[O-]` gave a melting point of 180 °C.
`O=S(=O)(Cl)c1cccc2nsnc12` gave a melting point of 148 to 150 °C.
`Oc1cc(-c2ccccc2)c2cc(Br)cc(Br)c2n1` showed a melting point of 210 to 211 °C.
`CS(=O)(=O)c1nn(-c2ccccc2)c(N)c1C#N` showed a melting point of 190 °C.
`COc1cc(C2Nn3c(nnc3-c3ccccc3)S2)ccc1O` (centres undefined) showed a melting point of 149 °C.
`Cc1c2c(c(C)c3c1CC3=O)C(=O)C2` showed a melting point of 188 °C.
Work on `Cc1cc(C)c2c(=O)n(-c3cccc(C(F)(F)F)c3)c(=O)[nH]c2n1` yielded a melting point of 264 to 266 °C.
For `S=C=Nc1ccc(Cl)cc1Cl`, the melting point was 38 °C.
`CNC(=O)Oc1cccc(C)c1` gave a melting point of 77.7 °C.
Work on `O=C(C=Cc1ccc(OCCCl)cc1)c1ccc(OCCCl)cc1` yielded a melting point of 83 °C.
With `O=Cc1cc(Br)ccc1Br` the melting point was 95 °C.
`CC(=O)c1cc(O)cc(O)c1` showed a melting point of 143 to 147 °C.
`Sc1nc2cccnc2s1` showed a melting point of 300 °C.
For `C[Si](C)(C)c1cnc([Si](C)(C)C)s1`, the melting point was 55 °C.
Work on `O=S(=O)(O)CC(O)CN1CCOCC1` (centres undefined) yielded a melting point of 273 to 274 °C.
For `CC(Cl)(Cl)C(=O)OCCOc1cc(Cl)c(Cl)cc1Cl`, the melting point was 49.5 °C.
For `CC(=O)C1(O)CCC2(C)C(CCC3C4CCC(=O)C4(C)CCC32)C1` (centres undefined), the melting point was 211 to 212 °C.
For `NCCN(CCN)CCN`, the melting point was -16 °C.
In the case of `CCc1nnc(/N=N/c2c(-c3ccccc3)n(C)c3ccccc23)s1`, the melting point is reported as 221 °C.
`C=C(C)C(=O)OCCCC` gave a melting point of -75 °C.
For `COc1ccc(-c2onc(C(=O)c3ccc(C)cc3)c2S(=O)(=O)c2ccccc2)cc1`, the melting point was 170 °C.
Work on `O=C(O)c1cc([N+](=O)[O-])cc(S(=O)(=O)Nc2ccccc2)c1` yielded a melting point of 177 °C.
Compound `NC(=S)c1cnccc1C(F)(F)F` has a melting point of 153 to 156 °C.
`CC(C)(O)CCCC1=CCC(C=O)CC1` (centres undefined) gave a melting point of -30 °C.
Work on `CNC(=O)Oc1ccc(SC)c(C)c1` yielded a melting point of 118 °C.
Work on `O=C1NC(=O)C(=NO)C(=O)N1` yielded a melting point of 236 to 242 °C.
Work on `c1cnc2c(SSc3cccc4cccnc34)cccc2c1` yielded a melting point of 205 to 206 °C.
Work on `CC(NC(=O)OCc1ccccc1)C(=O)O` (racemic) yielded a melting point of 112 to 113 °C.
`FC(F)(F)C1(F)C(F)(F)C(F)(F)C(F)(F)C2(F)C(F)(F)C(F)(F)C(F)(F)C(F)(F)C12F` (centres undefined) showed a melting point of -70 °C.
Work on `CCOc1ccc(Cl)cc1` yielded a melting point of 21 °C.
Compound `O=c1c(O)c(O)c1=O` has a melting point of 293 °C.
In the case of `NCCCCCN`, the melting point is reported as 9 °C.
Compound `COc1cc(F)c(C=O)cc1F` has a melting point of 99 °C.
Work on `O=C1CCCCCCCCC1O` (centres undefined) yielded a melting point of 42 °C.
Work on `CCC(C1CCc2cc(O)ccc2C1)C(C)(C)C(=O)O` (centres undefined) yielded a melting point of 163 °C.
With `N#Cc1ccc2ccccc2n1` the melting point was 95 °C.
With `CC(=O)N[Si](C)(C)C` the melting point was 41 °C.
Work on `CC(=O)Nc1ccc(C#N)c(C(F)(F)F)c1` yielded a melting point of 170 to 173 °C.
With `CCOC(=O)C1=C(C)OC(N)=C(c2nc3ccccc3s2)C1c1ccc(N(C)C)cc1` (centres undefined) the melting point was 215 °C.
For `CC(C)(O)CCl`, the melting point was -20 °C.
Compound `O=C1NCCN1CCO` has a melting point of 49 °C.
Compound `CCOC(=O)N1C(=O)c2ccccc2C1=O` has a melting point of 91 °C.
`COc1cc(C(=O)O)c(OC)c([N+](=O)[O-])c1` showed a melting point of 180 to 184 °C.
Compound `Cc1ccc(S(=O)(=O)n2ccnc2)cc1` has a melting point of 75 to 80 °C.
Work on `Nc1ccc(C(O)(C(F)(F)F)C(F)(F)F)cc1` yielded a melting point of 150 °C.
Compound `COc1ccc(Oc2ccc([N+](=O)[O-])cc2C(=O)Cl)cc1` has a melting point of 91 to 93 °C.
For `O=[N+]([O-])c1ccccc1CCO`, the melting point was 2 °C.
`O=C(CBr)c1cccc(F)c1` gave a melting point of 34 to 35 °C.
With `Cc1nc(NC(=N)N)sc1Br` the melting point was 203 to 205 °C.
Work on `Fc1ccc(C(=S)N2CCCCC2)cc1` yielded a melting point of 77 °C.
Work on `COc1c(OC)c2occc2c2oc(=O)ccc12` yielded a melting point of 119 °C.
In the case of `COc1cc(C(=O)Cc2ccccc2)c([N+](=O)[O-])cc1OC`, the melting point is reported as 152 °C.
`O=C(O)C=Cc1ccc(Cl)c([N+](=O)[O-])c1` showed a melting point of 187 °C.
For `Nc1ccc(N2CCOCC2)cc1`, the melting point was 130 to 131 °C.
With `Cc1ccc(CNC(=O)c2cc([N+](=O)[O-])cc([N+](=O)[O-])c2)c(C)c1` the melting point was 180 °C.
Work on `CC12CCCC1C1CCC3CCCCC3(C)C1CC2` (centres undefined) yielded a melting point of 50.2 °C.
For `CCC(c1ccc(O)cc1)C(CC)c1ccc(O)cc1` (centres undefined), the melting point was 187 °C.
In the case of `CC(=O)C(c1ccccc1)c1ccccc1`, the melting point is reported as 61 °C.
`N=C1c2ccccc2C(=O)N1c1n[nH]c2ncccc12` showed a melting point of 252 to 255 °C.
In the case of `O=C(NCN1CCOCC1)c1cnccn1`, the melting point is reported as 118 °C.
Work on `CCCCCCCOc1ccc(N=[N+]([O-])c2ccc(OCCCCCCC)cc2)cc1` yielded a melting point of 73 to 122 °C.
Compound `CC(C)(Sc1cc(C(C)(C)C)c(O)c(C(C)(C)C)c1)Sc1cc(C(C)(C)C)c(O)c(C(C)(C)C)c1` has a melting point of 125 °C.
`CCCC1C(=O)N2C(N(C)C)=Nc3ccc(C)cc3N2C1=O` (centres undefined) showed a melting point of 228 °C.
In the case of `CC(C)CCCCCCCOC(=O)CCCCC(=O)OCCCCCCCC(C)C`, the melting point is reported as 27.4 °C.
For `Cc1cc(C)c(S(=O)(=O)NN)c(C)c1`, the melting point was 114 °C.
`CC1CSC(C=Cc2ccccc2[N+](=O)[O-])S1` (centres undefined) showed a melting point of 70 °C.
With `N#Cc1cc2cc3c4c(c2oc1=O)CCCN4CCC3` the melting point was 250 °C.
Work on `COc1cc2c(cc1OC)[C@@H](C(=O)c1ccc3c(c1OC)C=CC(C)(C)O3)CCO2` yielded a melting point of 118 °C.
`CC(C)(C)C(=O)Oc1ccc([N+](=O)[O-])cc1` gave a melting point of 92 to 96 °C.
In the case of `O=C(OCc1ccccc1Cl)ON1C(=O)CCC1=O`, the melting point is reported as 103 to 105 °C.
`CCOc1cccc(C=O)c1O` gave a melting point of 67 °C.
Work on `Clc1ccc(OCCCCBr)cc1` yielded a melting point of 30 to 31 °C.
Compound `Nc1cc2nc3c(cc2cc1C=O)CCCC3` has a melting point of 218 °C.
`FC(F)CBr` showed a melting point of -75 °C.
With `Clc1c(Cl)c(Cl)c2c(oc3ccccc32)c1Cl` the melting point was 169 °C.
Work on `COc1ccc(-c2nc(CCl)no2)cc1` yielded a melting point of 60 to 62 °C.
In the case of `C(#Cc1ccc(C#Cc2ccccc2)cc1)c1ccccc1`, the melting point is reported as 177 °C.
Compound `CC(=O)c1ccc(C#N)c(S)n1` has a melting point of 210 °C.

Reference: a melting point compilation (Tetko et al.)
